From patent publication US11279687B2, “Compounds and compositions for the inhibition of NAMPT” (Valo Health, Inc., priority 2010, dated 2022)

Legend:
[1] = molecular target: NAMPT (Homo sapiens (Human), UniProt P43490); assay: NAMPT biochemical inhibition assay (NMN quantified by mass spectrometry); settings: NAMPT biochemical inhibition; read-out: Biochem IC50
[2] = test system: A2780 cells; assay: In-vitro cell proliferation assay (SRB), A2780 cells; assay type: cell-based; settings: Homo sapiens, A2780, 72 h, A2780 cells, 72 hours, SRB; read-out: A2780 IC50;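 note: viable cell number read as SRB absorbance, background from media-only wells subtracted, IC50 interpolated from percent inhibition at two bracketing compound concentrations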

Chain of NAMPT (P43490 whole entry): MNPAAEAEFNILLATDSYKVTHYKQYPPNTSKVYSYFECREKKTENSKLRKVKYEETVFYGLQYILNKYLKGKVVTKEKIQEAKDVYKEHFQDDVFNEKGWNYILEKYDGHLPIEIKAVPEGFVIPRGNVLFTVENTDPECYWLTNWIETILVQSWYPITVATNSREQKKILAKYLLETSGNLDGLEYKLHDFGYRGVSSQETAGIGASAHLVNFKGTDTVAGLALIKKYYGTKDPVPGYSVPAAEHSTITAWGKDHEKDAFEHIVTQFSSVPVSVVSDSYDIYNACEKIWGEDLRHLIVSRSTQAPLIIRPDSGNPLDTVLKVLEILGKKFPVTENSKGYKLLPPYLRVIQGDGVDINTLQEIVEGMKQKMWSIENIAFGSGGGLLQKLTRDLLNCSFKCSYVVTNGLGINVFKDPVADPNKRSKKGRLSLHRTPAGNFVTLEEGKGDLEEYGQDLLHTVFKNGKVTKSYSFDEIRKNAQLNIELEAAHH

SMILES | IC50 [1] [nM] | IC50 [2] [nM]
COc1cc(NS(=O)(=O)c2ccc(NC(=O)NCc3cccnc3)cc2)cc(OC)c1 [3-{4-[(3,5-dimethoxyphenyl)sulfamoyl]phenyl}-1-(pyridin-3-ylmethyl)urea] | 5 | 96
Cc1cc(C)cc(S(=O)(=O)c2ccc(NC(=O)NCc3cccnc3)cc2)c1 [3-{4-[(3,5-dimethylbenzene)sulfonyl]phenyl}-1-(pyridin-3-ylmethyl)urea] | 1 | 40
Cc1cc(C)cc(NS(=O)(=O)c2ccc(NC(=O)NCc3cccnc3)cc2)c1 [3-{4-[(3,5-dimethylphenyl)sulfamoyl]phenyl}-1-(pyridin-3-ylmethyl)urea] | 1 | 41
CC(=O)c1cccc(S(=O)(=O)c2ccc(NC(=O)NCc3cccnc3)cc2)c1 [3-{4-[(3-acetylbenzene)sulfonyl]phenyl}-1-(pyridin-3-ylmethyl)urea] | 2.1 | 100 to 1000
CS(=O)(=O)N(c1cccc(N)c1)S(=O)(=O)c1ccc(NC(=O)NCc2cccnc2)cc1 [3-{4-[(3-aminophenyl)(methanesulfonyl)sulfamoyl]phenyl}-1-(pyridin-3-ylmethyl)urea] | 3 | 110
O=C(NCc1cccnc1)Nc1ccc(S(=O)(=O)c2cccc(Br)c2)cc1 [3-{4-[(3-bromobenzene)sulfonyl]phenyl}-1-(pyridin-3-ylmethyl)urea] | 2 | 322
COc1ccc(S(=O)(=O)c2ccc(NC(=O)NCc3cccnc3)cc2)cc1Cl [3-{4-[(3-chloro-4-methoxybenzene)sulfonyl]phenyl}-1-(pyridin-3-ylmethyl)urea] | 1.3 | 92.9
Cc1ccc(S(=O)(=O)c2ccc(NC(=O)NCc3cccnc3)cc2)cc1Cl [3-{4-[(3-chloro-4-methylbenzene)sulfonyl]phenyl}-1-(pyridin-3-ylmethyl)urea] | 0.9 | 100 to 1000
Cc1ccc(NS(=O)(=O)c2ccc(NC(=O)NCc3cccnc3)cc2)cc1Cl [3-{4-[(3-chloro-4-methylphenyl)sulfamoyl]phenyl}-1-(pyridin-3-ylmethyl)urea] | 1.4 | 26
CCCOc1ccc(S(=O)(=O)c2ccc(NC(=O)NCc3cccnc3)cc2)cc1Cl [3-{4-[(3-chloro-4-propoxybenzene)sulfonyl]phenyl}-1-(pyridin-3-ylmethyl)urea] | 4.6 | 100 to 1000
COc1cc(Cl)cc(S(=O)(=O)c2ccc(NC(=O)NCc3cccnc3)cc2)c1 [3-{4-[(3-chloro-5-methoxybenzene)sulfonyl]phenyl}-1-(pyridin-3-ylmethyl)urea] | 1.3 | 27.2
Cc1cc(Cl)cc(S(=O)(=O)c2ccc(NC(=O)NCc3cccnc3)cc2)c1 [3-{4-[(3-chloro-5-methylbenzene)sulfonyl]phenyl}-1-(pyridin-3-ylmethyl)urea] | 1.8 | 67.1
O=C(NCc1cccnc1)Nc1ccc(S(=O)(=O)c2cccc(Cl)c2)cc1 [3-{4-[(3-chlorobenzene)sulfonyl]phenyl}-1-(pyridin-3-ylmethyl)urea] | 3 | 518
CCS(=O)(=O)Nc1cccc(S(=O)(=O)c2ccc(NC(=O)NCc3cccnc3)cc2)c1 [3-{4-[(3-ethanesulfonamidobenzene)sulfonyl]phenyl}-1-(pyridin-3-ylmethyl)urea] | 1.1 | 69.5
CCOc1cc(S(=O)(=O)c2ccc(NC(=O)NCc3cccnc3)cc2)ccc1F [3-{4-[(3-ethoxy-4-fluorobenzene)sulfonyl]phenyl}-1-(pyridin-3-ylmethyl)urea] | 3.9 | 28.3
CCOc1cccc(S(=O)(=O)c2ccc(NC(=O)NCc3cccnc3)cc2)c1 [3-{4-[(3-ethoxybenzene)sulfonyl]phenyl}-1-(pyridin-3-ylmethyl)urea] | 1.7 | 83.7
CCc1cccc(S(=O)(=O)c2ccc(NC(=O)NCc3cccnc3)cc2)c1 [3-{4-[(3-ethylbenzene)sulfonyl]phenyl}-1-(pyridin-3-ylmethyl)urea] | 2 | 70.8
COc1ccc(S(=O)(=O)c2ccc(NC(=O)NCc3cccnc3)cc2)cc1F [3-{4-[(3-fluoro-4-methoxybenzene)sulfonyl]phenyl}-1-(pyridin-3-ylmethyl)urea] | 2 | 173
Cc1ccc(S(=O)(=O)c2ccc(NC(=O)NCc3cccnc3)cc2)cc1F [3-{4-[(3-fluoro-4-methylbenzene)sulfonyl]phenyl}-1-(pyridin-3-ylmethyl)urea] | 1 | 206
CCCOc1ccc(S(=O)(=O)c2ccc(NC(=O)NCc3cccnc3)cc2)cc1F [3-{4-[(3-fluoro-4-propoxybenzene)sulfonyl]phenyl}-1-(pyridin-3-ylmethyl)urea] | 1.3 | 58.5
COc1cc(F)cc(S(=O)(=O)c2ccc(NC(=O)NCc3cccnc3)cc2)c1 [3-{4-[(3-fluoro-5-methoxybenzene)sulfonyl]phenyl}-1-(pyridin-3-ylmethyl)urea] | 1.7 | 100 to 1000

SMILES | IC50 [1] [nM] | IC50 [2] [nM]
Cc1cc(F)cc(S(=O)(=O)c2ccc(NC(=O)NCc3cccnc3)cc2)c1 [3-{4-[(3-fluoro-5-methylbenzene)sulfonyl]phenyl}-1-(pyridin-3-ylmethyl)urea] | 1.7 | 99.3
O=C(NCc1cccnc1)Nc1ccc(S(=O)(=O)c2cccc(F)c2)cc1 [3-{4-[(3-fluorobenzene)sulfonyl]phenyl}-1-(pyridin-3-ylmethyl)urea] | 1 | 238
CS(=O)(=O)c1cccc(S(=O)(=O)c2ccc(NC(=O)NCc3cccnc3)cc2)c1 [3-{4-[(3-methanesulfonylbenzene)sulfonyl]phenyl}-1-(pyridin-3-ylmethyl)urea] | 6.6 | 100 to 1000
COc1cc(S(=O)(=O)c2ccc(NC(=O)NCc3cccnc3)cc2)ccc1C [3-{4-[(3-methoxy-4-methylbenzene)sulfonyl]phenyl}-1-(pyridin-3-ylmethyl)urea] | 2.7 | 17.9
COc1cc(NS(=O)(=O)c2ccc(NC(=O)NCc3cccnc3)cc2)ccc1C [3-{4-[(3-methoxy-4-methylphenyl)sulfamoyl]phenyl}-1-(pyridin-3-ylmethyl)urea] | 4 | 148
Cc1cccc(S(=O)(=O)c2ccc(NC(=O)NCc3cccnc3)cc2)c1 [3-{4-[(3-methylbenzene)sulfonyl]phenyl}-1-(pyridin-3-ylmethyl)urea] | 2 | 157
CCCOc1cccc(S(=O)(=O)c2ccc(NC(=O)NCc3cccnc3)cc2)c1 [3-{4-[(3-propoxybenzene)sulfonyl]phenyl}-1-(pyridin-3-ylmethyl)urea] | 3.8 | 100 to 1000
Cc1cccc(N2CCN(S(=O)(=O)c3ccc(NC(=O)NCc4cccnc4)cc3)C[C@@H]2C)c1 [3-{4-[(3S)-3-methyl-4-(3-methylphenyl)piperazine-1-sulfonyl]phenyl}-1-(pyridin-3-ylmethyl)urea] | 3 | 34
Cc1ccc(N2CCN(S(=O)(=O)c3ccc(NC(=O)NCc4cccnc4)cc3)C[C@@H]2C)cc1 [3-{4-[(3S)-3-methyl-4-(4-methylphenyl)piperazine-1-sulfonyl]phenyl}-1-(pyridin-3-ylmethyl)urea] | 4 | 95
CC(=O)c1ccc(S(=O)(=O)c2ccc(NC(=O)NCc3cccnc3)cc2)cc1 [3-{4-[(4-acetylbenzene)sulfonyl]phenyl}-1-(pyridin-3-ylmethyl)urea] | 2 | 100 to 1000
CC(=O)c1ccc(NS(=O)(=O)c2ccc(NC(=O)NCc3cccnc3)cc2)cc1 [3-{4-[(4-acetylphenyl)sulfanoyl]phenyl}-1-(pyridin-3-ylmethyl)urea] | 14.4 | 1000 to 10000
O=C(NCc1cccnc1)Nc1ccc(S(=O)(=O)c2ccc(Br)cc2)cc1 [3-{4-[(4-bromobenzene)sulfonyl]phenyl}-1-(pyridin-3-ylmethyl)urea] | 3 | 239
O=C(NCc1cccnc1)Nc1ccc(S(=O)(=O)c2ccc(Cl)cc2F)cc1 [3-{4-[(4-chloro-2-fluorobenzene)sulfonyl]phenyl}-1-(pyridin-3-ylmethyl)urea] | 2 | 415
Cc1cc(Cl)ccc1S(=O)(=O)c1ccc(NC(=O)NCc2cccnc2)cc1 [3-{4-[(4-chloro-2-methylbenzene)sulfonyl]phenyl}-1-(pyridin-3-ylmethyl)urea] | 6 | 755
O=C(NCc1cccnc1)Nc1ccc(S(=O)(=O)c2ccc(Cl)c(F)c2)cc1 [3-{4-[(4-chloro-3-fluorobenzene)sulfonyl]phenyl}-1-(pyridin-3-ylmethyl)urea] | 3 | 221
COc1cc(S(=O)(=O)c2ccc(NC(=O)NCc3cccnc3)cc2)ccc1Cl [3-{4-[(4-chloro-3-methoxybenzene)sulfonyl]phenyl}-1-(pyridin-3-ylmethyl)urea] | 4.4 | 63.2
O=C(NCc1cccnc1)Nc1ccc([S+]([O-])c2ccc(Cl)cc2)cc1 (stereo not drawn) [3-{4-[(4-chlorobenzene)sulfmyl]phenyl}-1-(pyridin-3-ylmethyl)urea] | 8 | 41
O=C(NCc1cccnc1)Nc1ccc(S(=O)(=O)Nc2ccc(Cl)c3ccccc23)cc1 [3-{4-[(4-chloronaphthalen-1-yl)sulfamoyl]phenyl}-1-(pyridin-3-ylmethyl)urea] | 5 | 53
CCOc1ccc(NS(=O)(=O)c2ccc(NC(=O)NCc3cccnc3)cc2)c(F)c1 [3-{4-[(4-ethoxy-2-fluorophenyl)sulfamoyl]phenyl}-1-(pyridin-3-ylmethyl)urea] | 4 | 157
CCOc1ccc(S(=O)(=O)c2ccc(NC(=O)NCc3cccnc3)cc2)cc1F [3-{4-[(4-ethoxy-3-fluorobenzene)sulfonyl]phenyl}-1-(pyridin-3-ylmethyl)urea] | 1.2 | 21.7
CCOc1ccc(S(=O)(=O)c2ccc(NC(=O)NCc3cccnc3)cc2)cc1 [3-{4-[(4-ethoxybenzene)sulfonyl]phenyl}-1-(pyridin-3-ylmethyl)urea] | 2.2 | 100 to 1000
